Test results as given in US7163944B2, “Cyclic diamine compound and pharmaceutical containing the same” (Kowa Co., Ltd., priority 2004, dated 2007).

Columns and labels:
[1] = Metabolic stability in human liver microsomes; type: in vitro ADME
Procedure: Test 2: Test on Metabolic Stability in Human Liver Microsomes
In accordance with the below-described Table 2, an NRS (NADPH regenerating system) solution and 16% human serum albumin were added to a 0.1 mol/L phosphate buffer (containing 3.3 mM magnesium chloride) (pH 7.4), followed by the addition of a solution of a test compound (100 μM) in acetonitrile (0.01 mL). After preincubation in a warm bath of 37° C. for 5 minutes, human liver microsomes (POOLED HUMAN LIVER MICROSOMES, Lot. No. 20, product of GENETEST) were added and a reaction was effected for 30 minutes in a warm bath of 37° C. A 0.25 mL portion of the reaction mixture was collected 0 and 30 minutes after the initiation of the reaction, followed by extraction. The amount of the test compound was measured by HPLC. A remaining ratio of the unchanged compound after 30 minutes was calculated based on the following equation: (peak area after 30 minutes/peak area at 0 minute)×100.
To each sample were added 1.0 mL of a glycine buffer (pH 10), 0.1 mL of an internal standard substance and 5.0 mL of tert-butyl methyl ether, followed by shaking for 10 minutes and centrifugal separation at 2500 rpm for 10 minutes to collect the organic layer.

ACAT = target: T1, ACAT (Mus musculus, UniProt Q61263); test: Cholesterol ester accumulation inhibitory action (ACAT inhibitory activity) in J774 cells; type: cell-based; conditions: 25-hydroxycholesterol 10 μg/ml, 18 hours incubation, concentration inhibiting 50% of CE production, N=4
T1 construct: endogenous in cells; host or cells: J774 cells
T1 sequence (Q61263 1-540): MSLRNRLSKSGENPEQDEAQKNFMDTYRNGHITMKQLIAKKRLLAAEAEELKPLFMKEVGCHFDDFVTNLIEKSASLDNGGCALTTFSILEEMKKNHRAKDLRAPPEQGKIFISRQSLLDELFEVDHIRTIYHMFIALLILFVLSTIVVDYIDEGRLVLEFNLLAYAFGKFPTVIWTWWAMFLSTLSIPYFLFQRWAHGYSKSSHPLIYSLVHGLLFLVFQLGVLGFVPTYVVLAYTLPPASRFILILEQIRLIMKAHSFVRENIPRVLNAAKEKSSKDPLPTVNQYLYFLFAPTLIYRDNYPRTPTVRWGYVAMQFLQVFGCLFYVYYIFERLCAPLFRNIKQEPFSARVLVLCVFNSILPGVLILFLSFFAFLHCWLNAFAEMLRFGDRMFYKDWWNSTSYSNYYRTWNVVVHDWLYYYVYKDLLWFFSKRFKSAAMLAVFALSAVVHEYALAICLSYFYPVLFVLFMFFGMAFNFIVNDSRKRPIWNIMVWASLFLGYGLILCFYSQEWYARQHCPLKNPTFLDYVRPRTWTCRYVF
Procedure: Test 1: Cholesterol Ester Accumulation Inhibitory Action (ACAT Inhibitory Activity) in J774 Cells.
J774 cells (2×10^5 cells/well) were seeded on a 24-well plate and incubated for 24 hours in 500 μL of DMEM (10% FBS). After replacement with a new medium, 25-hydroxycholesterol (10 μg/ml) and a test compound (final concentration: 0, 10^−9 to 10^−5 mol/L) were added, followed by incubation for 18 hours. After washing with 0.9% NaCl, the lipid was extracted with 250 μL of hexane-isopropanol (3:2) and then extracted with 250 μL of hexane-isopropanol (3:2) again. After the extracts were combined and distilled, the amount of cholesterol ester (CE) thus obtained was determined by the fluorescent enzyme assay. The cells from which the lipid was extracted were subjected to protein assay (micro BCA assay) and the amount of CE per mg of protein was determined. From a CE production ratio of the test compound to the control, IC50 (concentration of the compound inhibiting 50% of CE production) was calculated at N=4.

[2] = test system: lipid-loaded F1B hamster model; test: Aorta lipid deposition suppression test, lipid-loaded F1B hamster model; type: in vivo; conditions: Bio F1B male hamsters, fat-rich diet 10 weeks, 1 mg/kg orally twice a day, aorta Oil red O area vs control group
Procedure: Test 3: Aorta Lipid Deposition Suppression Test
In accordance with the method of Nicolosi, et al., a test using an animal model of arteriosclerosis, that is, a lipid-loaded F1B hamster model was made and a lipid deposition area in the aortic arch was measured to investigate the effects of the test compound for suppressing lipid deposition [refer to Nicolosi R J, et al., Atherosclerosis 137, 77–85(1988)].
Bio F1B male hamsters purchased from Charles River Japan, Inc. were divided at random into three groups (a compound (1) administered group, a comparative compound (B) administered group and a medicament non-administered group (control group)), each group consisting of 6 hamsters. […] After 10 weeks, an area of the lipid deposited in the aorta was measured by an image analyser. […]
An 18-G injection needle was inserted into the cardiac apex, followed by perfusion with physiological saline (120 mmHg) for about 5 minutes, and then, with a 4% paraformaldehyde solution (120 mmHg) for about 5 minutes. […] The image was scanned into a computer and the area of the portion stained with Oil red 0 and the area of the lumen surface were measured using an image analyser software (“Win Roof”, product of Mitani Shoji). In each case of each group, a ratio of the area of the portion stained with Oil Red O to the lumen surface area was calculated and it was designated as an aorta lipid deposition ratio. […]

O=C(CN1CCN(CCSc2nc3cccc(C(F)(F)F)c3o2)CC1)Nc1c(C(F)(F)F)cc(O)cc1C(F)(F)F [compound (1), 2-[4-[2-(7-trifluoromethylbenzoxazol-2-ylthio)ethyl]piperazin-1-yl]-N-[4-hydroxy-2,6-bis(trifluoromethyl)phenyl]acetamide]
remaining ratio of the unchanged compound after 30 minutes ([1]; pooled human liver microsomes, 37° C., 30 minutes, NADPH regenerating system, human serum albumin, HPLC): 38% | metabolic resistance in human liver microsomes relative to compound (B) ([1]; times higher than compound (B)): about 40 times | IC50 (ACAT): 49 nM | lipid deposition suppression ratio [2]: 43% | melting point: 176 to 177 °C
